We go through two compounds from patent EP4706657A1, “COMBINATION THERAPY OF PEXIDARTINIB AND NINTEDANIB FOR PREVENTION OR TREATMENT OF PULMONARY FIBROSIS” (Korea Institute of Radiological & Medical Sciences, priority 2023, dated 2024).

Structures are written as SMILES.

Assay [1] has as its system pulmonary fibrosis induced by bleomycin. The experiment in a line: Inhibitory effect on pulmonary fibrosis induced by bleomycin in mice (Micro-CT, H&E and Masson's Trichrome staining, survival). Type of assay: in vivo. As to conditions: bleomycin sulfate 1.5 U/kg, male C57BL/6 mice; each drug 60 mg/kg orally once daily for two weeks starting 14 days after bleomycin; Micro-CT 4 weeks after bleomycin; compared to untreated group. As to the method: Each drug was administered starting 14 days after the administration of bleomycin. The control drugs, nintedanib and pexidartinib (IM-1), were both administered at a dose of 60 mg/kg, and the co-administration group was orally administered nintedanib (60 mg/kg) with IM-1 (60 mg/kg) once daily for two weeks (a total of 13 administrations). Additionally, to analyze the degree of inflammatory response and the degree of fibrosis, H&E staining and Masson's Trichrome staining were performed. In addition, the mouse survival rate was compared in FIG. 3.

In assay [2] the test system is radiation-induced pulmonary fibrosis. Nature of the assay: Inhibitory effect on radiation-induced pulmonary fibrosis in mice (Micro-CT, H&E and Masson's Trichrome staining). It is filed as in vivo. As to conditions: SBRT 90 Gy, 4 mm collimator, male C57BL/6 mice; each drug 60 mg/kg orally daily, starting one hour before irradiation; Micro-CT two weeks after radiation exposure; compared to untreated group. An excerpt: Seven-week-old male C57BL/6 mice were divided into groups treated with IM-1, nintedanib, and the combination of the two drugs (IM-1 + nintedanib). One hour before stereotactic body radiation therapy (SBRT; 90 Gy, 4 mm collimator), the drugs were orally administered to the mice. The degree of pulmonary fibrosis and the inhibitory effect on radiation-induced lung injury were observed two weeks after radiation exposure. The IM-1 and nintedanib groups were each administered the respective drug daily at a dose of 60 mg/kg, and the combination group was administered both drugs daily at 60 mg/kg each. Additionally, to analyze the degree of inflammatory response and the degree of fibrosis, H&E staining and Masson's Trichrome staining were performed.

With `FC(F)(F)c1ccc(CNc2ccc(Cc3c[nH]c4ncc(Cl)cc34)cn2)cn1` [IM-1, 5-((5-chloro-1H-pyrrolo[2,3-b]pyridin-3-yl)methyl)-N-((6-(trifluoromethyl)pyridin-3-yl)methyl)pyridin-2-amine], the degree of fibrosis entry in assay [1] and in assay [2] was “a reduction in the degree of fibrosis” in each case.
As for `COC(=O)c1ccc2c(c1)NC(=O)/C2=C(\Nc1ccc(N(C)C(=O)CN2CCN(C)CC2)cc1)c1ccccc1` [nintedanib, methyl (3Z)-3-{[(4-{methyl[(4-methylpiperazin-1-yl)acetyl]amino}phenyl)amino](phenyl)methylidene}-2-oxo-2,3-dihydro-1H-indole-6-carboxylate], the degree of fibrosis entry in assay [1] and in assay [2] was “a reduction in the degree of fibrosis” each time.
